# Experimental data: article PMC8831520, “Small molecule SWELL1 complex induction improves glycemic control and nonalcoholic fatty liver disease in murine Type 2 diabetes” (Nature Communications, 2022)
# Columns and labels:
# [1] = biological target: T1, R103E-SWELL1 expressing HEK-293 cells (R103E O/E) (Homo sapiens, UniProt Q8IWT6, R103E); test: ICl,SWELL inhibition in SWELL1-R103E overexpressing cells, patch-clamp; format: cell-based
# T1 construct: P2A:EGFP (C); host or cells: HEK-293, Lipofectamine 2000, co-transfected with CMV-Cre; EGFP+ cells recorded
# From the text: See also Fig. 6 for a schematic representation. […] For SWELL1-R103E overexpression experiments, HEK-293 cells were transfected with either control Cre plasmid (CMV-Cre, McDonnell Genome Institute in Washington University in St. Louis) or Cre plus R103E-GFP (CAG-LoxP-stop-LoxP-SWELL1-R103E/3XFlag:P2A:EGFP, Vector Biolabs) plasmid using Lipofectamine 2000 as per the manufacturer’s protocol. SWELL1-R103E expressing HEK-293 cells were identified by EGFP + fluorescence.
# [2] = tested on: T2, SWELL1 protein in 3T3-F442A preadipocytes; test: SWELL1 protein western blot in preadipocytes; format: cell-based, murine; conditions: 10 µM, 96 h
# T2 construct: host or cells: 3T3-F442A preadipocytes and differentiated adipocytes (wild type)
# Protocol: In the case of 3T3-F442A adipocytes, the WT and KO cells were treated with either vehicle (DMSO), 1 or 10 µM SN-40X (after 7–11 days of differentiation) for 96 h and then stimulated with 0 and 10 nM insulin/serum-containing media with vehicle (DMSO) or SN-40X for 15 min for SWELL1 detection. […] To simulate glucolipotoxicity, 8 mM sodium palmitate was dissolved in 18.4% fatty-acid free BSA at 37 °C in DMEM medium with 25 mM glucose to obtain a conjugation ratio of 1:3 palmitate:BSA[80].
# Adipocytes were washed twice in ice-cold phosphate buffer saline and lysed in RIPA buffer (150 mM NaCl, 20 mM HEPES, 1% NP-40, 5 mM EDTA, pH 7.4) with proteinase/phosphatase inhibitors (Roche). The cell lysate was further sonicated in 10 s cycle intervals 2–3 times and centrifuged at 18,407×g for 30 min at 4 °C and repeated one more time to remove the excess fat. The supernatant was collected and further estimated for protein concentration using a DC protein assay kit (Bio-Rad). Fat and liver tissues were homogenized and suspended in RIPA buffer with inhibitors and further processed in a similar fashion as described above. HUVECs were also prepared in a similar fashion except the lysates were spun only once to remove the cells debris to obtain the clear supernatant. […] The images were further analyzed for band intensities using ImageJ software. […]
# [3] = tested on: SWELL1/LRRC8a-e mRNA in 3T3-F442A cells; test: qRT-PCR of LRRC8 family mRNA; format: cell-based, murine; conditions: 10 µM, 96 h
# Protocol: RNA samples were isolated using the PureLink RNA kit (Life Technologies) as per the manufacturer’s instructions. Complementary DNA (cDNA) synthesis was carried out using an iScript Reverse Transcriptase kit (Bio-Rad). […] Each sample measurement was carried out in triplicate. GAPDH was used as the internal standard and the fold change was calculated relative to GAPDH was normalized to vehicle group. The following qRT-PCR primers (5′ to 3′) were used: GAPDH forward—[…] and reverse— […]; SWELL1 forward—[…] and reverse— […]; LRRC8b forward—[…] and reverse— […]; LRRC8c forward—[…] and reverse—[…]; LRRC8d forward—[…] and reverse— […]; LRRC8e forward—[…] and reverse— […], respectively.
# [4] = design: method as in PMID 3306216; conditions: cited from earlier work
# [5] = design: method as in Zhang et al., Experimental Neurology, 2008; conditions: ref Zhang et al., Experimental Neurology, 2008; cited from earlier work
# T1 sequence (Q8IWT6 whole entry R103E): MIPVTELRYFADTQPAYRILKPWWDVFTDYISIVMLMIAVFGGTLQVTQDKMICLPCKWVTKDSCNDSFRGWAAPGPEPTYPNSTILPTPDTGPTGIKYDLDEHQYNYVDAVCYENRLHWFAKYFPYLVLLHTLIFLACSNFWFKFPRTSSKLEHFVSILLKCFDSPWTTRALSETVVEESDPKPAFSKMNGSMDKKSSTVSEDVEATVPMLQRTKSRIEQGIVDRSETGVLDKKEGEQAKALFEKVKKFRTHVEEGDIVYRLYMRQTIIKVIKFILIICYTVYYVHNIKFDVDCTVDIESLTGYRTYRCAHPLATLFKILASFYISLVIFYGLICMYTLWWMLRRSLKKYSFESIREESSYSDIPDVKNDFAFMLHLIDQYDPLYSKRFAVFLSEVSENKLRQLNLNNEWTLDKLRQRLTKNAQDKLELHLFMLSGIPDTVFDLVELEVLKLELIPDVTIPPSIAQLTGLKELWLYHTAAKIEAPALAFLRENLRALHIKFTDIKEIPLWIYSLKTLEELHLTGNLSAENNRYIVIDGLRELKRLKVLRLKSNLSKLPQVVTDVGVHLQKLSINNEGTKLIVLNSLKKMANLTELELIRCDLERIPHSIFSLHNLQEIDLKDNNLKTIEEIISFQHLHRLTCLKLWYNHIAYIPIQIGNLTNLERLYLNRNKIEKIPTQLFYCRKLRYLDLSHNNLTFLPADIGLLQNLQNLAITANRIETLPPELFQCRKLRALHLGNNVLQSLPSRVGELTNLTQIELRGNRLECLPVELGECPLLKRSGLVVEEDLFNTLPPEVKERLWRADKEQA
smiles,measurement,setting,value
"CCCCC1(C2CCCC2)Cc2cc(OCCCC(=O)O)c(Cl)c(Cl)c2C1=O (centres unmarked) [SN-401, 4-((2-butyl-6,7-dichloro-2-cyclopentyl-1-oxo-2,3-dihydro-1H-inden-5-yl)oxy)butanoic acid]",IC50,[1],6 µM
same,SWELL1 protein expression,[2],threefold
same,SWELL1 and LRRC8b-e mRNA,[3],not associated with increases in SWELL1 mRNA
same,diuretic activity,[4],minimal diuretic activity
same,blood brain barrier passage,[5],does not cross the blood brain barrier
